Results from US20160287741A1, “METASTABLE SILVER NANOPARTICLE COMPOSITES WITH COLOR INDICATING PROPERTIES” (SIENNA LABS, INC., priority 2013, published 2016).

Assays:
[1] = Gelled deodorant stick blends, silica stabilized vs non-stabilized nanoplates vs silver salt: settling, peak resonance shift, hue; format: physicochemical; details: Table A blends
Method: Gelled sticks with silver nanoplates were prepared by blending water, dipropylene glycol and propylene glycol components, heating the resulting blends to 85° C., adding the poloxamine to the heated blend and mixing until clear, adding the sodium stearate to the heated blends and again mixing until clear, cooling the blends to 75° C. and adding the 2-amino-2-methylpropan-1-ol with agitation, cooling the blends to 71-73° C., and mixing in the remaining ingredients. Non-stabilized silver nanoplates and silica stabilized silver nanoplates were prepared according to the methods in example 1 and 2 respectively and added into separate blends. A silver salt was added to a separate blend. The blends were then allowed to cool to room temperature and gel.
A 100 microliter aliquot of from non-stabilized and silica stabilized silver blend solutions was added to a 96 well plate and allowed to cool to room temperature and gel.

[2] = Gelled deodorant stick blends, PVP nanoplates with or without borate vs silver salt: settling, peak resonance shift, hue; format: physicochemical; details: Table B blends
Method: Gelled sticks with silver nanoplates were prepared by blending water, dipropylene glycol and propylene glycol components, heating the resulting blends to 85° C., adding the poloxamine to the heated blend and mixing until clear, adding the sodium stearate to the heated blends and again mixing until clear, cooling the blends to 75° C. and adding the 2-amino-2-methylpropan-1-ol with agitation, cooling the blends to 71-73° C., and then mixing in the remaining ingredients. PVP and borate stabilized silver nanoplates were prepared according to the methods in example 1 with the addition of PVP and borate into the mixture after synthesis. In one blend was added borate prior to adding silver nanoplates, in another blend borate was not added. A silver salt was added to a separate blend with no borate. The blends were then allowed to cool to room temperature and gel.
A 100 microliter aliquot from non-stabilized and silica stabilized silver blend solutions was added to a 96 well plate and allowed to cool to room temperature and gel.

[3] = EPA, United States; cited from earlier work
[4] = EPA Reference Dose for Chronic Oral Exposure (RfD) for silver and intravenous conversion; parameters: species or system human population
Excerpt: We estimate less than half of the silver has diffused from the silicone into the IV fluid over 7 days based on the silver nanoplate plasmonic peak wavelength, which corresponds directly with the diameter decrease in the etched silver nanoplates. Even if all of the silver had diffused from the silicone into the IV fluid during 7 days, this would correspond to a daily body absorption of 1.6 micrograms per day. In the United States, the EPA has set a Reference Dose for Chronic Oral Exposure (RfD) of 5 micgrams per Kg per day for silver. RfD is the daily exposure to the human population (including sensitive subgroups) that is likely to be without an appreciable risk of deleterious effects during a lifetime. Oral dose is estimated based on a conversion of 4% absorption of dietary silver into the body. Thus, an intravenous RfD would be approximately 0.2 micrograms per day of silver. For a 70 Kg person, this corresponds to 14 micrograms per day.

Row | settling in gelled deodorant blend [1] | settling in gelled deodorant blend [2] | Structure (SMILES) | Reference Dose for Chronic Oral Exposure (RfD) [3] | intravenous RfD for a 70 Kg person ([4]; 70 Kg person) | intravenous RfD ([4]; conversion of 4% absorption of dietary silver)
1 | exhibited settling | exhibited settling | [Cl][Ag] [silver chloride, Silver Chloride] | – | – | –
2 | – | – | [Ag] [silver] | 5 micgrams per Kg per day | 14 micrograms per day | approximately 0.2 micrograms per day
